Assay results as given in PubChem BioAssay (NCI).
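All cell lines were grown in 96-well plates and treated with compound for 48 hours. The concentration for full growth arrest is given as TGI.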

Assays:
Test in all cases: DTP human tumour cell line panel, 48 h
[1] = test system: OVCAR-5 ovarian
[2] = test system: MALME-3M melanoma
[3] = test system: HL-60(TB) leukemia
[4] = test system: MCF7 breast
[5] = test system: HCC-2998 colon
[6] = test system: NCI-H460 lung
[7] = test system: SNB-19 CNS
[8] = test system: HOP-92 NSCLC
[9] = test system: SF-539 CNS
[10] = test system: SN12C renal
[11] = test system: UACC-257 melanoma
[12] = test system: SF-295 CNS
[13] = test system: TK-10 renal
[14] = test system: CAKI-1 renal
[15] = test system: HCT-15 colon
[16] = test system: A549 NSCLC
[17] = test system: DU-145 prostate
[18] = test system: OVCAR-4 ovarian
[19] = test system: LOX IMVI melanoma
[20] = test system: HS 578T breast
[21] = test system: KM12 colon
[22] = test system: UACC-62 melanoma
[23] = test system: T-47D breast
[24] = test system: U251 CNS
[25] = test system: SK-MEL-2 melanoma
[26] = test system: NCI-H522 lung
[27] = test system: NCI/ADR-RES ovarian
[28] = test system: SK-OV-3 ovarian
[29] = test system: SF-268 CNS
[30] = test system: RXF 393 renal
[31] = test system: K-562 leukemia
[32] = test system: OVCAR-8 ovarian
[33] = test system: PC-3 prostate
[34] = test system: M14 melanoma
[35] = test system: MDA-N
[36] = test system: SR leukemia
[37] = test system: BT-549 breast
[38] = test system: HOP-62 NSCLC
[39] = test system: NCI-H23 lung
[40] = test system: MDA-MB-435
[41] = test system: SW-620 colon
[42] = test system: EKVX NSCLC
[43] = test system: HT29 colon
[44] = test system: MOLT-4 leukemia
[45] = test system: NCI-H226 lung
[46] = test system: CCRF-CEM leukemia
[47] = test system: HCT-116 colon
[48] = test system: COLO 205 colon
[49] = test system: ACHN renal
[50] = test system: SK-MEL-28 melanoma
[51] = test system: OVCAR-3 ovarian
[52] = test system: MDA-MB-231 breast
[53] = test system: SK-MEL-5 melanoma
[54] = test system: UO-31 renal
[55] = test system: 786-0 renal
[56] = test system: IGROV1 ovarian
[57] = test system: SNB-75 CNS
[58] = test system: RPMI-8226 leukemia
[59] = test system: A498 renal

Measured: TGI

CCOC(=O)Cc1ccc(Nc2nc3cc(F)c(F)cc3nc2C(=O)OCC)cc1
9.08 µM: [52]
69.6 µM: [5]
3.15 µM: [54]
56.4 µM: [42]
42.9 µM: [14]
54.6 µM: [8]
92.2 µM: [25]
33.5 µM: [49]
35.5 µM: [26]
> 100 µM: [1] | [2] | [3] | [4] | [6] | [7] | [9] | [10] | [11] | [12] | [13] | [15] | [16] | [17] | [18] | [19] | [20] | [21] | [22] | [23] | [24] | [27] | [28] | [29] | [30] | [31] | [32] | [33] | [34] | [35] | [36] | [37] | [38] | [40] | [41] | [43] | [44] | [45] | [46] | [47] | [48] | [50] | [51] | [53] | [55] | [56] | [57] | [58]
66.5 µM: [39]

Cc1ccc(/C=C2\CCS(=O)(=O)c3ccccc3C2=O)cc1
34.9 µM: [42]
80.4 µM: [38]
30.9 µM: [13]
45.3 µM: [33]
31 µM: [8]
36.2 µM: [45]
51.6 µM: [29]
44 µM: [25]
26.1 µM: [47]
47.9 µM: [41]
77.2 µM: [35]
27.7 µM: [15] | [17]
28.9 µM: [5]
25.4 µM: [54]
28.7 µM: [56]
> 100 µM: [9] | [16] | [20] | [31] | [58]
44.2 µM: [30]
73.6 µM: [34]
33.2 µM: [14]
35.1 µM: [11]
36.5 µM: [7] | [59]
90.7 µM: [1]
28.2 µM: [27]
40.5 µM: [12]
34.8 µM: [4] | [18]
45.1 µM: [10]
30.8 µM: [19] | [24]
31.9 µM: [43]
32.9 µM: [57]
34 µM: [37] | [55]
31.3 µM: [6]
29.6 µM: [39]
46.3 µM: [28]
43.6 µM: [44]
37.7 µM: [51]
28.6 µM: [49]
73.1 µM: [3]
62.3 µM: [46]
55.2 µM: [40]
39.1 µM: [50]
30.7 µM: [32]
32.6 µM: [23]
34.6 µM: [52]
30.2 µM: [48]
30.6 µM: [21]
33.4 µM: [22]
63.7 µM: [36]

Cc1c2c(n3c(nc4ccccc43)c1C#N)NCC2
> 10 µM: [1] | [2] | [3] | [4] | [6] | [7] | [8] | [9] | [10] | [11] | [12] | [13] | [14] | [15] | [16] | [17] | [18] | [19] | [20] | [21] | [22] | [23] | [24] | [27] | [28] | [29] | [30] | [31] | [32] | [33] | [34] | [35] | [36] | [37] | [38] | [39] | [40] | [41] | [42] | [43] | [44] | [45] | [46] | [47] | [48] | [49] | [59] | [50] | [51] | [52] | [53] | [54] | [55] | [56] | [57] | [58]

CSc1nc(SC)c2c(C)c(Br)[nH]c2n1
> 100 µM: [1] | [2] | [3] | [4] | [5] | [6] | [7] | [8] | [9] | [10] | [12] | [13] | [14] | [15] | [16] | [17] | [18] | [19] | [20] | [21] | [22] | [23] | [24] | [25] | [26] | [27] | [28] | [29] | [30] | [32] | [33] | [34] | [35] | [36] | [37] | [38] | [39] | [40] | [41] | [42] | [43] | [44] | [45] | [46] | [47] | [48] | [49] | [59] | [50] | [51] | [52] | [53] | [54] | [55] | [56] | [57] | [58]
